“And” between values parts separate entries of the source, which are not always exact repeats. Equal entries are not always repeated. “Also recorded” adds a separate entry of the source.
What was measured:
[1] = system: Japanese mustard spinach; assay: Verification experiment 1: high temperature stress, hydroponics (first time); type: in vivo; settings: for effect as agent compared with zerumbone: high temperature stress, hydroponics
Experimental: In order to confirm that the above substances have an efficacy such as alleviation of the various stresses on a plant or promotion of plant growth, some verification experiments were conducted. In each of the verification experiments, solutions of the above substances were used. A concentration thereof was in a range from 0.01 ppm to 10 ppm, in order to exert a sufficient efficacy on a plant. This concentration was appropriately adjusted for each verification experiment. For comparison, similar verification experiments using sanguinarine were conducted. In such a verification experiment for an identical purpose to the above, a concentration of sanguinarine was set to be identical to those of the above substances. A verification experiment for high temperature stress was conducted by use of Japanese mustard spinach. The experiment was conducted in the following procedures. […] Note that the agent used was zerumbone.

[2] = system: Japanese mustard spinach; assay: Verification experiment 2: high temperature and low sunshine stress, hydroponics (second time-B)
[3] = system: Japanese mustard spinach; assay: Verification experiment 2: high temperature stress, hydroponics, plenty of sunlight (second time-A)
[4] = system: cucumber; assay: Verification experiment 6: dry stress; type: in vivo; settings: for Weight of each seedling: 3 ml agent added immediately after germination, 18 days cultivation, soil surface kept dry, samples No. 1-9; for Average: average seedling weight after 18 days dry stress; for Weight comparison (%): control = 100.0
Experimental: By use of cucumber, a resistance to dry stress was investigated. 3 ml of Zerumbone was added to cucumber seedlings immediately after germination. The cucumber seedlings were cultivated for 18 days. Meanwhile, another cucumber seedlings were cultivated for 18 days without Zerumbone added thereto. Throughout the cultivation period, a minimum amount of water was given and watering was conducted a minimum number of times so that the soil surface was always kept dry. […] A weight of each of the seedlings was measured. […] Note that, except for the agent, the cultivation conditions used were identical to those of the case where zerumbone was used.

[5] = system: cucumber; assay: Verification experiment 8: low temperature stress, TTC test; type: in vivo; settings: for TTC test dyeing of leaves (cell activity): remaining plants cultivated two days under fluorescent lamp at 4° C.
[6] = system: cucumber; assay: Verification experiment 9: organic acid stress, TTC test; type: in vivo; settings: cut leaves immersed in 0.4% acetic acid solution for two hours
[7] = system: cucumber; assay: Verification experiment 10: ammonia stress, TTC test; type: in vivo; settings: cut leaves immersed in 1.0% ammonia solution for three hours
[8] = system: cucumber; assay: Verification experiment 11: ultraviolet ray stress, TTC test; type: in vivo; settings: cut leaves irradiated with ultraviolet ray for 24 hours
[9] = system: cucumber; assay: Verification experiment 12: salt stress, TTC test; type: in vivo; settings: cut leaves immersed in 1.0% saline water for 24 hours
[10] = system: leaf lettuce; assay: Verification experiment 13: hydroponics test on leaf lettuce in vinyl greenhouse in summer; type: in vivo
[11] = system: autumn fern; assay: Verification experiment 14: high temperature stress, Pteridophyta, TTC test; type: in vivo; settings: cut leaves immersed in tap water of 45° C. for 18 hours
Experimental: As a Pteridophyta, autumn fern was used, which is a representative Pteridophyta often found in, […] bright forest. Verification experiments for various stresses were conducted thereon. The experiments were conducted in the following procedures. […] Meanwhile, the leaf surfaces of the control sample were sprayed only with water. After the spraying onto the leaf surfaces, the autumn fern seedlings were cultivated at 25° C. for one day. The leaves were cut in a suitable size, and were then subjected to various stresses. Then, cell activities of the samples were determined by TTC test. The leaves that were cut in the suitable size were immersed in tap water of 45° C. for 18 hours. On such leaves, TTC test was conducted.

[12] = system: autumn fern; assay: Verification experiment 15: organic acid stress, Pteridophyta, TTC test; type: in vivo; settings: cut leaves immersed in 0.4% acetic acid solution for three hours
[13] = system: autumn fern; assay: Verification experiment 16: ammonia stress, Pteridophyta, TTC test; type: in vivo; settings: cut leaves immersed in 1.0% ammonia solution for 48 hours
[14] = system: racomitrium moss; assay: Verification experiment 17: high temperature stress, Bryophyta, TTC test; type: in vivo; settings: samples immersed in tap water of 45° C. for 18 hours
Experimental: As a Bryophyta, racomitrium moss was used, which is a Bryophyta widely used for greening a park, a rooftop, and a garden. Verification experiments for various stresses were conducted thereon. The experiments were conducted in the following procedures. […] Meanwhile, the control sample was sprayed only with water. After the spraying, the racomitrium mosses were cultivated at 25° C. for one day. Then, the samples were subjected to various stresses. Thus, cell activities of the samples were determined by TTC test. […] On such samples, TTC test was conducted.

[15] = system: racomitrium moss; assay: Verification experiment 18: organic acid stress, Bryophyta, TTC test; type: in vivo; settings: samples immersed in 0.4% acetic acid solution for three hours
[16] = system: racomitrium moss; assay: Verification experiment 19: ammonia stress, Bryophyta, TTC test; type: in vivo; settings: samples immersed in 1.0% ammonia solution for 48 hours
[17] = cut leaves left two days in dark place at 0° C.
[18] = cut leaves left two days in dark place at −10° C.
[19] = leaf lettuce, summer greenhouse hydroponics

Structure (SMILES)	effect as agent compared with zerumbone [1]	Weight of each seedling [4]	Average [4] [g]	Weight comparison (%) [4] [%]	TTC test dyeing (cell activity) [5, 17]	TTC test dyeing (cell activity) [5, 18]	TTC test dyeing of leaves (cell activity) [5]	cells having an activity (TTC test) [6]	cells having an activity (TTC test) [7]	cells having an activity (TTC test) [8]	cells alive (TTC test) [9]	TTC test dyeing (cell activity) [11]	TTC test dyeing (cell activity) [12]	TTC test dyeing (cell activity) [13]	TTC test dyeing (cell activity) [14]	TTC test dyeing (cell activity) [15]	TTC test dyeing (cell activity) [16]	also measured
C[n+]1cc2c3c(ccc2c2ccc4cc5c(cc4c21)OCO5)OCO3 [Sanguinarine, sanguinarine, reference compound]																		Average ([1]; average weight of 10 samples, first time): 1.574 g; weights greater than those of the control samples ([1]; average weights compared, first time): approximately 3%; Growth ratio (%) ([1]; control = 100.0, first time): 103.2%; Weight of 10 samples ([1]; dry weight of 10 seedlings, leaf spray, nine days culture, maximum temperature 30-43 °C, plenty of sunlight, first time): 1.554 g and 1.538 g and 1.594 g and 1.610 g; growth better than the growth of the control samples ([2]; Table 3 experiment, almost no sunlight): approximately 17%; Growth ratio (%) ([2]; control = 100.0, second time-B): 116.7%; Weight of 10 samples ([2]; dry weight of 10 seedlings, nine days, 30-43 °C, almost no sunlight, second time-B): 1.802 g and 1.873 g; Average ([2]; second time-B): 1.838 g; weights greater than those of the control samples ([3]; Table 2 experiment): approximately 11%; Growth ratio (%) ([3]; control = 100.0, second time-A): 110.7%; Weight of 10 samples ([3]; dry weight of 10 seedlings, nine days, 30-43 °C, plenty of sunlight, second time-A): 1.996 g and 2.027 g and 2.156 g and 2.179 g; Average ([3]; second time-A): 2.090 g
C/C1=C\CC/C(C)=C/CC(C)(C)/C=C/C1 [α-humulene]	effects almost similar to that of zerumbone	2.69 g and 2.99 g and 3.21 g and 3.07 g and 3.02 g and 2.76 g and 2.65 g and 3.03 g	2.90	108.5	dyed deeply	dyed slightly	dyed deeply except for their peripheries	approximately half of the cells	a part of the cells	approximately half of the cells	most of the cells	dyed slightly	dyed slightly	dyed slightly	dyed slightly	dyed slightly	dyed slightly	Disease resistance: Powdery mildew ([10]; in vivo): Not occurred; Disease resistance: Root rot ([10]; in vivo): Not occurred; Physiological disorder (quality): Heterophyll ([10]; in vivo): Not occurred; Physiological disorder (quality): Root spread condition ([10]; in vivo): far better than in the sanguinarine test section; also recorded: Generally; Physiological disorder (quality): Taste ([10]; in vivo): No bitterness; Physiological disorder (quality): Tip burn (dead fringes of leaf) ([10]; in vivo): Not occurred; Physiological disorder (quality): Unproductive growth ([10]; in vivo): Not occurred; occurrence of a disease (overall) ([10]; in vivo): occurrence of a disease was not observed; physiological disorder (overall) ([10]; in vivo): no physiological disorder occurred
C=C1CC/C=C(\C)CC[C@@H]2[C@@H]1CC2(C)C [β-caryophyllene]	effects almost similar to that of zerumbone	2.89 g and 3.15 g and 3.01 g and 3.13 g and 2.91 g and 3.53 g and 3.11 g and 3.02 g	3.10	108.8	dyed deeply	dyed slightly	dyed deeply except for their peripheries	approximately half of the cells	a part of the cells	approximately half of the cells	most of the cells	dyed slightly	dyed slightly	dyed slightly	dyed slightly	dyed slightly	dyed slightly	Growing speed: Harvest timing ([10]; day on which harvest size reached 150 g to 180 g): 33rd day after day after germination; Disease resistance: Powdery mildew [10, 19]: Not occurred; Disease resistance: Root rot [10, 19]: Not occurred; Physiological disorder (quality): Heterophyll [10, 19]: Not occurred; Physiological disorder (quality): Root spread condition [10, 19]: far better than in the sanguinarine test section; also recorded: Very good; Physiological disorder (quality): Taste [10, 19]: No bitterness; Physiological disorder (quality): Tip burn (dead fringes of leaf) [10, 19]: Not occurred; Physiological disorder (quality): Unproductive growth [10, 19]: Not occurred; occurrence of a disease (overall) [10, 19]: occurrence of a disease was not observed; physiological disorder (overall) [10, 19]: no physiological disorder occurred
